From US12590950B2, “Methods for predicting ER-mediated DNA damage” (UNIVERSITY OF MASSACHUSETTS, priority 2019, dated 2026)
Entries after “also recorded” stand apart in the source; their conditions may differ.

Key:
T47D cells = assay: 53BP1 immunostaining in T47D cells; assay type: cell-based, human; details: E2 10-100 nM, BP3 1-5 μM, PP 1-5 μM
mammary epithelium = assay: Acute oral exposure of ovariectomized mice: nuclear S9.6 staining of mammary epithelium; assay type: in vivo, mouse; details: 4 days, E2 250, BP3 3,000, PP 10,000 μg/kg/day
Text: (§1) Animal Treatment: Forty mature female mice (8 weeks old) BALB/c mice were purchased from Jackson Laboratory and housed in temperature-controlled facilities with a 12-hour alternating day/night light cycle and fed LabChow 5058 ad libitum. All procedures were in accordance with the national guidelines for the care and use of animals and approved by the University of Massachusetts Amherst's Institutional Animal Care and Use Committee.
(§2) The mice were ovariectomized before treatment. Briefly, each mouse was anaesthetized with a mix of isofluorance and oxygen. The flanks were shaved, sterilized with betadine and cleaned with alcohol. An incision was made to the skin on the right flank. The underlying muscle layer was nicked to reveal a small hole through which ovary was pulled out by grasping the periovarian fat. A Serrifin clamp was used to hold the ovary. After making sure the blood vessels were constricted to prevent […], the ovary was cut from the uterine horn. The periovarian fat was restored into the peritoneum. The peritoneum was closed with one or two stiches and the skin was closed with 9 mm wound clips. The procedure was repeated on the contralateral side. The mouse was monitored for a week post-procedure and wound clips were removed after 10 days. After 1 week of recovery, the mice began an acute oral treatment via pipette with one of three different compounds prepared in tocopherol-stripped corn oil for 4 days. Each mouse was administered 1 μL of oil per gram of body weight to deliver 250 μg/kg/d E2, 3000 μg/kg/d BP3 or 10000 μg/kg/d PP or vehicle control. […]
(§3) Immunostaining of mouse mammary gland: Freshly cut […] paraffin-embedded sections were deparaffinized/rehydrated with 100% xylenes 3 times for 5 min each, 2 times with 100% ethanol for 5 min each, 95% ethanol for 3 min and 70% ethanol for 3 min. […] Analysis of S9.6 intensity per nucleus or foci per nucleus were calculated using Nikon analysis software, where DAPI was used as a mask for the nucleus. […] Positive cells were counted using ImageJ software. 1200 cells were counted to determine percent Ki67 positive.

[1] = tested on: parental 76N-tert cell line; assay: S9.6 immunostaining (R-loops) in parental 76N-tert cells without ERα; assay type: cell-based, human; details: no ERα
Protocol: Generation of 76N-Tert-ESR1 cells: The 76N-Tert cell line, a human mammary epithelial cell line immortalized with expression of human telomerase reverse transcriptase (TERT) was provided (35). These cells were grown in F-media (250 mL DMEM (-pyruvate) (Gibco #11965-092), 250 mL Ham's F12 (Gibco #11765-054), 5% FBS, 250 ng/mL hydrocortisone (Sigma #H4001), 10 ng/mL human epidermal growth factor (Tonbo Biosciences #21-8356-U100), 8.6 ng/mL cholera toxin vibrio (Millipore Sigma #227035), 1 μg/mL human insulin solution, and 1× antibiotic-antimycotic and passaged every 2-3 days.
Immunostaining: Cells were grown in clearing media for 48 h and plated on 20 mm coverslip in 12 well plates with a density of 2×10^5 cells/well. After 24 h of growth, cells were treated with 10 nM E2, 1 or 5 μM BP3, and 1 or 5 μM PP with or without 1 μM fulvestrant. γH2AX/ERα: Cells were fixed in ice-cold methanol (100%) for 10 mins and quenched with 0.1 M Glycine for 15 mins. Cells were washed with 1×PBS, blocked in 2% BSA/PBS with 0.1% Triton-X 100 for 1 hr at room temperature (RT), incubated overnight with γH2AX antibody (Cell Signaling #9718 S) or ERα antibody (Santa Cruz Biotechnology #sc-8002) at 4° C. and 1 hour with secondary antibody. S9.6: Cells were fixed in ice-cold 100% methanol for 10 min at −20° C., permeabilized in 100% acetone for 1 min at RT, blocked for 30 min in saline sodium citrate pH 7 (SSC, 4×), 3% BSA, 0.1% Triton-X and incubated with S9.6 (Kerafast #ENH001) 2 hr at RT followed by 1 h with secondary antibody. If indicated, slides were treated with RNase H (NEB #M0297L) for 4 hr at 37° C. prior to incubation with primary antibody. Stained cells were mounted with Vectashield mounting medium containing DAPI (Vector Laboratories #H-1200). Slides were imaged at 60× (immersion oil) with Nikon A1 Spectral Confocal microscope. Analysis of γH2AX and S9.6 intensity per nucleus or foci per nucleus was calculated using Nikon analysis software, where DAPI was used as a mask for the nucleus.

TFF1 = assay: RT-qPCR of estrogen-responsive gene TFF1 in T47D cells; assay type: cell-based, human; details: T47D; for expression of TFF1 vs control: 5 μM
Protocol: RT-qPCR: RNA from T47D cells, MCF-7 Cells or flash-frozen 4th mammary gland was isolated with TRIzol (Thermofisher Scientific #15596018) and Direct-zol RNA MiniPrep Plus (Zymo Research #R2072). cDNA was prepared with Protoscript II First Strand cDNA Synthesis Kit (New England Biolabs #E6560S) and qPCR for TFF1, progesterone receptor (PGR) and Amphiregulin (AREG) was performed on CFX96 Real-Time System thermocycler (Bio-Rad) using primers in Table 1.

MCF-7 cells = assay: 53BP1 immunostaining in MCF-7 cells; assay type: cell-based, human; details: E2 10-100 nM, BP3 1-5 μM, PP 1-5 μM
mammary gland = assay: Acute oral exposure of ovariectomized mice: nuclear γH2AX in mammary gland; assay type: in vivo, mouse; details: 4 days, E2 250, BP3 3,000, PP 10,000 μg/kg/day
Text: as §1, §2, §3

## COc1ccc(C(=O)c2ccccc2)c(O)c1 [BP3, 2-Hydroxy-4-methoxybenzophenone]
T47D cells
  53BP1 nuclear intensity: higher nuclear 53BP1 intensity over control
Mammary epithelium
  nuclear S9.6 staining in mammary epithelium over control treated animals: 2.5 fold
[1]
  nuclear S9.6 staining: low nuclear S9.6 staining
TFF1
  expression of TFF1 vs control: did not differ from the control
MCF-7 cells
  53BP1 nuclear intensity: dose-dependent increase
Mammary gland
  nuclear γH2AX intensity in the mammary gland vs vehicle control: significantly higher; also recorded: increases

## C[C@]12CC[C@@H]3c4ccc(O)cc4CC[C@H]3[C@@H]1CC[C@@H]2O [E2, 17β-estradiol, reference compound]
T47D cells
  53BP1 nuclear intensity: dose-dependent increases in 53BP1 nuclear intensity
Mammary epithelium
  nuclear S9.6 staining in mammary epithelium over control treated animals: 3.8 fold
[1]
  nuclear S9.6 staining: low nuclear S9.6 staining
TFF1; 10 nM
  increase in expression of TFF1: 13.1 fold
MCF-7 cells
  53BP1 nuclear intensity: dose-dependent increases in 53BP1 nuclear intensity
Mammary gland
  nuclear γH2AX intensity in the mammary gland vs vehicle control: significantly higher

## CCCOC(=O)c1ccc(O)cc1 [PP, propyl parahydroxybenzoate]
T47D cells
  53BP1 nuclear intensity: dose-dependent increases in 53BP1 nuclear intensity
Mammary epithelium
  nuclear S9.6 staining in mammary epithelium over control treated animals: 3.8 fold
[1]
  nuclear S9.6 staining: low nuclear S9.6 staining
TFF1
  expression of TFF1 vs control: did not differ from the control
MCF-7 cells
  53BP1 nuclear intensity: dose-dependent increases in 53BP1 nuclear intensity
Mammary gland
  nuclear γH2AX intensity in the mammary gland vs vehicle control: increases
